From patent US10125098B2, “Therapeutic compounds and methods of use thereof” (GENENTECH, INC., priority 2014, dated 2018)
Structures can show the parent of a compound that is named as a salt. Where two headings read alike, the source gives them in different places.

Tests used:
human NaV1.7 = target: T1, human NaV1.7 (Homo sapiens, UniProt Q15858); assay: Patch voltage clamp electrophysiology assay (EP), NaV1.7; assay type: cell-based; settings: HEK-293 cells stably expressing NaV1.7 with β1 subunit; whole-cell patch clamp, membrane potential −60 mV (inactivated state)
T1 construct: permanently transfected with an expression vector containing the full-length cDNA coding for the desired human sodium channel α-subunit; expressed in transfected cells; host or cells: HEK-293
Outline: (§1)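 HEK-293 cells stably expressing human α-subunit with β1; whole-cell patch clamp (PatchXpress or manual), ambient temperature, pH 7.4 external NaCl, CsF internal. Held at −60 mV (full inactivation), stepped to −150 mV for 20 ms, then test pulse; percent current decrease after compound wash-on taken as block.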

NaV1.5 = target: T2, NaV1.5 (Homo sapiens, UniProt Q14524); assay: Patch voltage clamp electrophysiology assay (EP), NaV1.5; assay type: cell-based; settings: HEK-293 cells stably expressing NaV1.5 with β1 subunit, whole-cell patch clamp, membrane potential −60 mV (inactivated state)
T2 construct: permanently transfected with an expression vector containing the full-length cDNA coding for the desired human sodium channel α-subunit; expressed in transfected cells; host or cells: HEK-293
Outline: as §1

hNav1.7 = target: T3, hNav1.7 (Homo sapiens, UniProt Q15858); assay: Tritiated compound binding (LBA) to membranes from cells expressing hNav1.7 and the β1 subunit, competitive binding; settings: competitive binding vs 100 pM [3H]compound, 18 h, room temperature, membranes with hNav1.7 and β1 subunit
T3 construct: expressed in transfected cells
Outline: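 Membranes from cells expressing hNav1.7 with β1 were incubated 18 h at room temperature with 100 pM tritiated formula (I) compound and increasing test compound, in 100 mM NaCl, 20 mM Tris HCl pH 7.4, 0.01% BSA.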

[1] = human, HEK-293 cells stably expressing human NaV1.5 with β1 subunit, pH 7.4

T3 sequence (Q15858 1-1977 isoform Q15858-3): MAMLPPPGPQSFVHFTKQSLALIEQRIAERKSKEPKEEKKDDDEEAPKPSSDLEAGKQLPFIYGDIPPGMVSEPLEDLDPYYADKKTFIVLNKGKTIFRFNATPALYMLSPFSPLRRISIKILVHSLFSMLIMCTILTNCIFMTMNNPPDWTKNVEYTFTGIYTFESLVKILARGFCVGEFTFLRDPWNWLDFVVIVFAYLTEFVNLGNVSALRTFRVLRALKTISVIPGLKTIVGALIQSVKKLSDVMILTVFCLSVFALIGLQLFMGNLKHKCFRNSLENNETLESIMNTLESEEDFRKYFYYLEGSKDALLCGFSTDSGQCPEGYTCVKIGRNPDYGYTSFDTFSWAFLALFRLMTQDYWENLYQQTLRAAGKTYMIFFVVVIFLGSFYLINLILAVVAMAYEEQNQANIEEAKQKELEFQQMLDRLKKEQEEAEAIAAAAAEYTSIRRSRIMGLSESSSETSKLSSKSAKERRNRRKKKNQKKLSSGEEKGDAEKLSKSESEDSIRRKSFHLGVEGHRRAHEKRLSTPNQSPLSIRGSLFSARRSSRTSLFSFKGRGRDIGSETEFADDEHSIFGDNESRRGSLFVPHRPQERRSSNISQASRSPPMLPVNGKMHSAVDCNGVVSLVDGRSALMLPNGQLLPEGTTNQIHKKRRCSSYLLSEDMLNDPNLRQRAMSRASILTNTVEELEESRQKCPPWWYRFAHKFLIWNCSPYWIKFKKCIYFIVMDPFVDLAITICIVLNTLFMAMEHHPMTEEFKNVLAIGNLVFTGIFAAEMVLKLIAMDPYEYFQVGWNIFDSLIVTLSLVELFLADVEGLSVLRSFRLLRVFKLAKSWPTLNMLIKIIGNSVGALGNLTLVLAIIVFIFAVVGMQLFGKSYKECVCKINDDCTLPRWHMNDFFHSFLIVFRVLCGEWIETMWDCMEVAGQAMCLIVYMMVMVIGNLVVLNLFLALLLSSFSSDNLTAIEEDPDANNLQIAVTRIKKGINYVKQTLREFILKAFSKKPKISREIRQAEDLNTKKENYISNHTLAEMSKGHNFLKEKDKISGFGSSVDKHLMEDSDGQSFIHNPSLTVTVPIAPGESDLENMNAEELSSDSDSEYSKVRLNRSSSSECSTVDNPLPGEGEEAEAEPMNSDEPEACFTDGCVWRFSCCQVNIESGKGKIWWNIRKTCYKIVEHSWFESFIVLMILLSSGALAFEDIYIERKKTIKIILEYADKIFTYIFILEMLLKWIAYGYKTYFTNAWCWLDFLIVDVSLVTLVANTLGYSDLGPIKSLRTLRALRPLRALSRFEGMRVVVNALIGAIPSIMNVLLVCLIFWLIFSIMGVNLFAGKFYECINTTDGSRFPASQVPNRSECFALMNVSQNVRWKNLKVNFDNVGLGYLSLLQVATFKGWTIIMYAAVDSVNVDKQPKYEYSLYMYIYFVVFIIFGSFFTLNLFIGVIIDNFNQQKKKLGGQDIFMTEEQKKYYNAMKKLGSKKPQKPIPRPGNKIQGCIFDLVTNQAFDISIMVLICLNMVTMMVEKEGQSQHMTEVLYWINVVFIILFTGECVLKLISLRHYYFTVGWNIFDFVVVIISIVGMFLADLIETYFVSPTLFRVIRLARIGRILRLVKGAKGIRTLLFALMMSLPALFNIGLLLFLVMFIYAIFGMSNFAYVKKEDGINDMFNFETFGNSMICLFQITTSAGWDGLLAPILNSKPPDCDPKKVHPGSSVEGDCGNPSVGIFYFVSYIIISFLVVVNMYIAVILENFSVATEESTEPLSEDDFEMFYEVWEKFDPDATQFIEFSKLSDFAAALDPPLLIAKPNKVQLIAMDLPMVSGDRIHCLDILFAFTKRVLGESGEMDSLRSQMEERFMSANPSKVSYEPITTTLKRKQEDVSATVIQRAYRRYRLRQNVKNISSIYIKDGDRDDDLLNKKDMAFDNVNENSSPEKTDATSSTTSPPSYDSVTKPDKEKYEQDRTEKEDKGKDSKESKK
T3 sequence (Q07699 19-218 partner): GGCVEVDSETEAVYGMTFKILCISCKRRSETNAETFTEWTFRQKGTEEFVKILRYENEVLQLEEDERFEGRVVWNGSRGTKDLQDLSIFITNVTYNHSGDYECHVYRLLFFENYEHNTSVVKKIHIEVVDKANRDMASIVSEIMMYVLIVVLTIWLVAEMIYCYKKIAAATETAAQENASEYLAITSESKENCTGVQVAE
T1 sequence (Q15858 1-1977 isoform Q15858-3): as the sequence (Q15858 1-1977 isoform Q15858-3) above
T1 sequence (Q07699 19-218 partner): as the sequence (Q07699 19-218 partner) above
T2 sequence (Q14524 whole entry): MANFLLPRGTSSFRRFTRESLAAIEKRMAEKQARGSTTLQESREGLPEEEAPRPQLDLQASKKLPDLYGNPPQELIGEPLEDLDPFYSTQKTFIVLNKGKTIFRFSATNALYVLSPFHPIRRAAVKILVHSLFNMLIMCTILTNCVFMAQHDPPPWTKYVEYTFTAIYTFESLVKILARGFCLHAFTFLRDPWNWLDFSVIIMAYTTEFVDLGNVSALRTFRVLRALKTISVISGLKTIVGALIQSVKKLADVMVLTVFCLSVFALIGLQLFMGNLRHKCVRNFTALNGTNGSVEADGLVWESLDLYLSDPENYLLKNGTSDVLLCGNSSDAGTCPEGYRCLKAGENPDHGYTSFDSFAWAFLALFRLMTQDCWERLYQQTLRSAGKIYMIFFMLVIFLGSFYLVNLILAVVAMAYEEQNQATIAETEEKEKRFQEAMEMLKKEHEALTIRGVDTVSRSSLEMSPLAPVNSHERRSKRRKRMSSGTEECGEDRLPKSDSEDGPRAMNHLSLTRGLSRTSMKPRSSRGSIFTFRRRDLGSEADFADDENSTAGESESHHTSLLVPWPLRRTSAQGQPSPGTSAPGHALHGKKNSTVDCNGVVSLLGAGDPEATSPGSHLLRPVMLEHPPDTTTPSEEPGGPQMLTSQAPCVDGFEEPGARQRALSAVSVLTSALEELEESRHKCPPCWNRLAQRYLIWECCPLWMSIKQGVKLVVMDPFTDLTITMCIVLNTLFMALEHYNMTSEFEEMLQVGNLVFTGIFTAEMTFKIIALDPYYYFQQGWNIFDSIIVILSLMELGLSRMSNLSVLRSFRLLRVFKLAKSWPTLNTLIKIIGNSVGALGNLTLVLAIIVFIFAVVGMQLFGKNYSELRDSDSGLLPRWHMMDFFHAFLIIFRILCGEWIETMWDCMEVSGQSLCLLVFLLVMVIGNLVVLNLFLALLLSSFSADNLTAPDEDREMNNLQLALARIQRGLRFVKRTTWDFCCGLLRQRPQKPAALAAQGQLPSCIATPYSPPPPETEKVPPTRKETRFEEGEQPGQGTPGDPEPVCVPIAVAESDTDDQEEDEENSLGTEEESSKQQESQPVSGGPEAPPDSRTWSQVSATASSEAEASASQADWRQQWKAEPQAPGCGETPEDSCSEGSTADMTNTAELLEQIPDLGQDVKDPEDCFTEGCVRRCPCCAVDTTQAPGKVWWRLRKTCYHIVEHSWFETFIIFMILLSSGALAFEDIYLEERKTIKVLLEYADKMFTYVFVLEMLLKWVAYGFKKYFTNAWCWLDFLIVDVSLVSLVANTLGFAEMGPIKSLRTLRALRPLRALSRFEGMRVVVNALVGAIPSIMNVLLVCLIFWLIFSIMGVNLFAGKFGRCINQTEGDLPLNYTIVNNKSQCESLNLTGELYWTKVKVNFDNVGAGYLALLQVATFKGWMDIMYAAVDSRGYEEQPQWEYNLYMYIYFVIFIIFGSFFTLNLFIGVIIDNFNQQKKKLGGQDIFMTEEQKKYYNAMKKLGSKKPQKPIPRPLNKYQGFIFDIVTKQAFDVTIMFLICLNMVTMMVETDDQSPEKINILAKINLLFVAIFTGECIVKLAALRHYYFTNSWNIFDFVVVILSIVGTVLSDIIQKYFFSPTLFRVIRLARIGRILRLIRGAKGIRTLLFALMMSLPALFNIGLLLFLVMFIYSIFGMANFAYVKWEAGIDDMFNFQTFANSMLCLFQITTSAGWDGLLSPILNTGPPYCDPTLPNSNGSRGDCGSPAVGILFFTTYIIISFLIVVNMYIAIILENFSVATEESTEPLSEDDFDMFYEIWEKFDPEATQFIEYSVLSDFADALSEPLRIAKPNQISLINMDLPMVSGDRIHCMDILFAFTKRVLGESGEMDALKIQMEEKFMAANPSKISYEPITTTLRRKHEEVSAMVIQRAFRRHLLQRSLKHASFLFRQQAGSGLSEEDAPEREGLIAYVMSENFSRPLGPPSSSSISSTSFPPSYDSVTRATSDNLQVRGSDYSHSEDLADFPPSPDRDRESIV

IC50 (human NaV1.7) [nM] | IC50 (hNav1.7) [nM] | Structure (SMILES) | IC50 (NaV1.5; read-out: Nav1.5) [µM] | IC50 (NaV1.5; [1]) [µM]
1900 | 220 | C[C@@H]1[C@H](F)CN(C(=O)c2cc(C3CC3)c(OCC34CC5CC(CC(C5)C3)C4)cc2F)[C@@H]1C(=O)O [Example 210a, (2S,3S,4S)-1-(4-(adamantan-1-ylmethoxy)-5-cyclopropyl-2-fluorobenzoyl)-4-fluoro-3-methylpyrrolidine-2-carboxylic acid] | 27 | –
430 | 24 | C[C@H](c1cc(Cl)cc(Cl)c1)N1CCC(C)(COc2cc(F)c(C(=O)N3C[C@H](F)C[C@H]3C(=O)O)cc2C2CC2)CC1 (single isomer, unassigned) [Example 132b] | – | ≥ 30
94 | 7.3 | C[C@H]1OCN(C(=O)c2cc(C3CC3)c(OCC34CC5CC(CC(C5)C3)C4)cc2F)[C@@H]1C(=O)O [Example 162, (4S,5R)-3-[4-(1-adamantylmethoxy)-5-cyclopropyl-2-fluoro-benzoyl]-5-methyl-oxazolidine-4-carboxylic acid] | 5.7 | –
532 | 3580 | O=C(NC1(C(=O)O)CC1)c1cc(C2CC2)c(OCC23CC4CC(CC(C4)C2)C3)cc1F [Example 6, 1-(4-(adamantan-1-ylmethoxy)-5-cyclopropyl-2-fluorobenzamido)-cyclopropanecarboxylic acid] | 2.12 | –
130 | 27 | O=C(O)[C@@H]1C[C@@H](F)CN1C(=O)c1cc(C2CC2)c(OCC2(F)CCN(Cc3cc(C(F)(F)F)ccc3Cl)CC2)cc1F [Example 106, (2S,4R)-1-(4-((1-(2-chloro-5-(trifluoromethyl)benzyl)-4-fluoropiperidin-4-yl)methoxy)-5-cyclopropyl-2-fluorobenzoyl)-4-fluoropyrrolidine-2-carboxylic acid] | 21 | –
3100 | 830 | C[C@@H](c1cc(Cl)cc(Cl)c1)N1CCC(COc2cc(F)c(C(=O)N3[C@@H]4C[C@@H]4C[C@H]3C(=O)O)cc2C2CC2)CC1 [Example 156, (1R,3S,5R)-4-[5-cyclopropyl-4-[[1-[(1S)-1-(3,5-dichlorophenyl)ethyl]-4-piperidyl]methoxy]-2-fluoro-benzoyl]-4-azabicyclo[3.1.0]hexane-3-carboxylic acid] | 17 | –
10000 | 370 | O=C(NC(C(=O)O)C1CCC1)c1cc(C2CC2)c(OCC2(F)CCN(Cc3cc(C(F)(F)F)ccc3Cl)CC2)cc1F (stereo not drawn) [Example 110, 2-(4-((1-(2-chloro-5-(trifluoromethyl)benzyl)-4-fluoropiperidin-4-yl)methoxy)-5-cyclopropyl-2-fluorobenzamido)-2-cyclobutyl acetic acid] | 10 | –
640 | 35 | O=C(O)[C@@H]1CC(F)(F)CN1C(=O)c1cc(C2CC2)c(OCC23CC4CC(CC(C4)C2)C3)cc1F [Example 145, (2S)-1-[4-(1-adamantylmethoxy)-5-cyclopropyl-2-fluoro-benzoyl]-4,4-difluoro-pyrrolidine-2-carboxylic acid] | 16 | –
13.5 | 19.6 | O=C(O)[C@@H]1CCCN1C(=O)c1cc(C2CC2)c(OCC23CC4CC(CC(C4)C2)C3)cc1F [Example 1, (S)-1-(4-(adamantan-1-ylmethoxy)-5-cyclopropyl-2-fluorobenzoyl)pyrrolidine-2-carboxylic acid] | 3.5 | –
630 | 83 | CC1(COc2cc(F)c(C(=O)N3CCC[C@H]3C(=O)O)cc2C2CC2)CCC2(CC1)CC2 [Example 58, (5-cyclopropyl-2-fluoro-4-((6-methylspiro[2.5]octan-6-yl)-methoxy)benzoyl)-L-proline] | 21 | –
6700 | 2300 | O=C(O)[C@@H]1C[C@H](C(F)(F)F)CN1C(=O)c1cc(C2CC2)c(OCC23CC4CC(CC(C4)C2)C3)cc1F [Example 211, (2S,4S)-1-(4-((adamantan-1-yl)methoxy)-5-cyclopropyl-2-fluorobenzoyl)-4-(trifluoromethyl)pyrrolidine-2-carboxylic acid] | 14 | –
750 | 90 | CC1O[C@H](C)[C@@H](C(=O)O)N1C(=O)c1cc(C2CC2)c(OCC23CC4CC(CC(C4)C2)C3)cc1F (stereo partly drawn) [Example 166, (4S,5R)-3-[4-(1-adamantylmethoxy)-5-cyclopropyl-2-fluoro-benzoyl]-2,5-dimethyl-oxazolidine-4-carboxylic acid] | 13 | –
160 | 21 | CC1(C)[C@H]2CC[C@H](COc3cc(F)c(C(=O)N4CCC[C@H]4C(=O)O)cc3C3CC3)[C@@H]1C2 [Example 90, (S)-1-(5-cyclopropyl-4-(((1S, 2S, 5S)-6,6-dimethylbicyclo[3.1.1]heptan-2-yl)methoxy)-2-fluorobenzoyl)pyrrolidine-2-carboxylic acid] | 13 | –
1400 | 830 | O=C(O)[C@@H]1CCCN1C(=O)c1cc(Cl)c(COc2cnc(OCC(F)(F)C(F)F)c(Cl)c2)cc1F [Example 180, (S)-1-(5-chloro-4-(((5-chloro-6-(2,2,3,3-tetrafluoropropoxy)pyridin-3-yl)oxy)methyl)-2-fluorobenzoyl)pyrrolidine-2-carboxylic acid] | – | ≥ 30
5900 | 1900 | Cc1nn(C2CCN(c3ccc(Cl)c(C(F)(F)F)n3)CC2)c2cc(F)c(C(=O)N3CCC[C@H]3C(=O)O)cc12 [Example 195, (S)-1-(1-(1-(5-chloro-6-(trifluoromethyl)pyridin-2-yl)piperidin-4-yl)-6-fluoro-3-methyl-1H-indazole-5-carbonyl)pyrrolidine-2-carboxylic acid trifluoroacetate] | – | ≥ 30
550 | 34 | CO[C@@H]1C[C@@H](C(=O)O)N(C(=O)c2cc(C3CC3)c(OCC34CC5CC(CC(C5)C3)C4)cc2F)C1 [Example 59, (2S,4R)-1-(4-((adamantan-1-yl)methoxy)-5-cyclopropyl-2-fluorobenzoyl)-4-methoxypyrrolidine-2-carboxylic acid] | 26 | –
1600 | 130 | O=C(O)[C@@H]1C[C@@H](F)CN1C(=O)c1cc(C2CC2)c(OCC2CCN(Cc3ccc(Cl)c(F)c3)CC2)cc1F [Example 104, (2S,4R)-1-(4-((1-(4-chloro-3-fluorobenzyl)piperidin-4-yl)methoxy)-5-cyclopropyl-2-fluorobenzoyl)-4-fluoropyrrolidine-2-carboxylic acid] | – | ≥ 30
1600 | 310 | O=C(O)[C@@H]1CCCN1C(=O)c1cc(C2CC2)c(OC2C3CC4CC(C3)CC2C4)cc1F (stereo partly drawn) [Example 70, (S)-1-(4-(adamantan-2-yloxy)-5-cyclopropyl-2-fluorobenzoyl)pyrrolidine-2-carboxylic acid] | – | ≥ 30
1500 | 250 | C[C@@H]1SCN(C(=O)c2cc(C3CC3)c(OCC34CC5CC(CC(C5)C3)C4)cc2F)[C@@H]1C(=O)O [Example 142a, (4R,5S)-3-[4-(1-adamantylmethoxy)-5-cyclopropyl-2-fluoro-benzoyl]-5-methyl-thiazolidine-4-carboxylic acid] | 17 | –
1300 | 180 | CC[C@@H]1CCN(C(=O)c2cc(C3CC3)c(OCC34CC5CC(CC(C5)C3)C4)cc2F)[C@H]1C(=O)O [Example 168b, (2R,3R)-1-[4-(1-adamantylmethoxy)-5-cyclopropyl-2-fluoro-benzoyl]-3-ethyl-pyrrolidine-2-carboxylic acid] | 8.2 | –
2100 | 260 | CC1(C)CCC(C(=O)O)N1C(=O)c1cc(C2CC2)c(OCC23CC4CC(CC(C4)C2)C3)cc1F (stereo not drawn) [Example 147, 1-[4-(1-adamantylmethoxy)-5-cyclopropyl-2-fluoro-benzoyl]-5,5-dimethyl-pyrrolidine-2-carboxylic acid] | 14 | –
1500 | 380 | O=C(O)C1CC=NN1C(=O)c1cc(C2CC2)c(OCC23CC4CC(CC(C4)C2)C3)cc1F (stereo not drawn) [Example 96, 1-(4-(adamantan-1-ylmethoxy)-5-cyclopropyl-2-fluorobenzoyl)-4,5-dihydro-1H-pyrazole-5-carboxylic acid] | – | ≥ 30
1000 | 80 | C[C@@H](c1cc(Cl)cc(Cl)c1)N1CCC(COc2cc(F)c(C(=O)N3CSC[C@H]3C(=O)O)cc2C2CC2)CC1 [Example 159, (4R)-3-[5-cyclopropyl-4-[[1-[(1S)-1-(3,5-dichlorophenyl)ethyl]-4-piperidyl]methoxy]-2-fluoro-benzoyl]thiazolidine-4-carboxylic acid] | 17 | –

Structure (SMILES) | IC50 (human NaV1.7) [nM] | IC50 (hNav1.7) [nM] | IC50 (NaV1.5; read-out: Nav1.5) [µM] | IC50 (NaV1.5; [1]) [µM]
O=C(O)[C@@H]1C[C@@H](F)CN1C(=O)c1cc(C2CC2)c(OCC2CCN(Cc3c(Cl)cccc3Cl)CC2)cc1F [Example 222, (2S,4R)-1-(5-cyclopropyl-4-((1-(2,6-dichlorobenzyl)piperidin-4-yl)methoxy)-2-fluorobenzoyl)-4-fluoropyrrolidine-2-carboxylic acid] | 210 | 13 | – | ≥ 30
